Assay results from patent US8981087B2, “Benzo [E] [1,3] oxazin-4-one derivatives as phosphoinositide 3-kinase inhibitors” (Karus Therapeutics Limited, priority 2009, dated 2015).
Like-named read-outs stand apart in the source and are kept apart here.

Assays:
PI3K-p110β = PI3K-p110β (Homo sapiens, UniProt P42338); test: Biochemical PI3K-p110β inhibition
PI3K-p110γ = PI3K-p110γ (Homo sapiens, UniProt P48736); test: Biochemical PI3K-p110γ inhibition
PI3K-p110 α = PI3K-p110 α (Homo sapiens, UniProt P42336); test: Biochemical PI3K-p110α inhibition
PI3K-p110δ = PI3K-p110δ (Homo sapiens, UniProt O00329); test: Biochemical PI3K-p110δ inhibition
Chain of PI3K-p110δ (O00329 whole entry): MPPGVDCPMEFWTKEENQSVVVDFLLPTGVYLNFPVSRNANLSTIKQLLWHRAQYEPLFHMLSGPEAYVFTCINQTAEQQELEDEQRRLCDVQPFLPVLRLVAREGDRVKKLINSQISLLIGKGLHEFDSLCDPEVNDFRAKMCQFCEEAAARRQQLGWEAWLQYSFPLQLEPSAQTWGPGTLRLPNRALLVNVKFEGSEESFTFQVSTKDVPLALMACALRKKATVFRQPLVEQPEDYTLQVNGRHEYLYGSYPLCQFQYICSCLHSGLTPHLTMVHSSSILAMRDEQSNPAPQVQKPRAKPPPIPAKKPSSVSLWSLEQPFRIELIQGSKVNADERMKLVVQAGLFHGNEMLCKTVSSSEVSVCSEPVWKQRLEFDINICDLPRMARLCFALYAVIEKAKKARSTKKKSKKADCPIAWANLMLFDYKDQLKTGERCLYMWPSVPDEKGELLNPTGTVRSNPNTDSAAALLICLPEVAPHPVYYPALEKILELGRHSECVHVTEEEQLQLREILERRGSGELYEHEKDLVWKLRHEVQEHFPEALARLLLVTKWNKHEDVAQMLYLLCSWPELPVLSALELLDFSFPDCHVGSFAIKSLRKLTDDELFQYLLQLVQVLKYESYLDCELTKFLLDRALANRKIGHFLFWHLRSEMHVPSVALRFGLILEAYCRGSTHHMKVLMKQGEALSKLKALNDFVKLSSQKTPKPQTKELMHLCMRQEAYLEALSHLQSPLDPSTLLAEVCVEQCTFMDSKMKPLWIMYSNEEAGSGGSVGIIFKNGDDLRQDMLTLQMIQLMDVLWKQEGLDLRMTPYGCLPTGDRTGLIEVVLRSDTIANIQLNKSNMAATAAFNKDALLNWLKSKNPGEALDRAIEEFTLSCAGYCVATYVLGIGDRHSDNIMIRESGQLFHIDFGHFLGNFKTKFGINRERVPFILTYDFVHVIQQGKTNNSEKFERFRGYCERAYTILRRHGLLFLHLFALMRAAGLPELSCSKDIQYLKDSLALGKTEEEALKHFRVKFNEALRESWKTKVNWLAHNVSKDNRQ
Chain of PI3K-p110δ (P27986 whole entry partner): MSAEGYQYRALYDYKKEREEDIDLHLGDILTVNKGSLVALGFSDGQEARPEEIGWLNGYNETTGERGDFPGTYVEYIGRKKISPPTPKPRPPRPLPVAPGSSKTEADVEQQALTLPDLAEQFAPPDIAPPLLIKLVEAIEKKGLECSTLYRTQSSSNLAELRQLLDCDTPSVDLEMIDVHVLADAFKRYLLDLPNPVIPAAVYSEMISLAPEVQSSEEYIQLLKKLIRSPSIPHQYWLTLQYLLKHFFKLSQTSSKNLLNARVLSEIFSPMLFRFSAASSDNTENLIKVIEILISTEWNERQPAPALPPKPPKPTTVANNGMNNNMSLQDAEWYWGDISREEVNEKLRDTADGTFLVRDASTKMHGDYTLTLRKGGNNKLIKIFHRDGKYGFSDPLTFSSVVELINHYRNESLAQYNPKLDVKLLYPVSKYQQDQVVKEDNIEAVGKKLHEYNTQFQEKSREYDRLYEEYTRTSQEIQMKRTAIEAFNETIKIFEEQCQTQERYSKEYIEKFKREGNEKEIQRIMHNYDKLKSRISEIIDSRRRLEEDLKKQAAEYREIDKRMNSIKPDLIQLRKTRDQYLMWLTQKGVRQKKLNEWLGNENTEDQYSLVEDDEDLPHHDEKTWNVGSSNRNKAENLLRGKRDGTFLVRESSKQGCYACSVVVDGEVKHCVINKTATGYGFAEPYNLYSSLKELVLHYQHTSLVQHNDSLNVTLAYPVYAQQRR

Chain of PI3K-p110β (P42338 whole entry): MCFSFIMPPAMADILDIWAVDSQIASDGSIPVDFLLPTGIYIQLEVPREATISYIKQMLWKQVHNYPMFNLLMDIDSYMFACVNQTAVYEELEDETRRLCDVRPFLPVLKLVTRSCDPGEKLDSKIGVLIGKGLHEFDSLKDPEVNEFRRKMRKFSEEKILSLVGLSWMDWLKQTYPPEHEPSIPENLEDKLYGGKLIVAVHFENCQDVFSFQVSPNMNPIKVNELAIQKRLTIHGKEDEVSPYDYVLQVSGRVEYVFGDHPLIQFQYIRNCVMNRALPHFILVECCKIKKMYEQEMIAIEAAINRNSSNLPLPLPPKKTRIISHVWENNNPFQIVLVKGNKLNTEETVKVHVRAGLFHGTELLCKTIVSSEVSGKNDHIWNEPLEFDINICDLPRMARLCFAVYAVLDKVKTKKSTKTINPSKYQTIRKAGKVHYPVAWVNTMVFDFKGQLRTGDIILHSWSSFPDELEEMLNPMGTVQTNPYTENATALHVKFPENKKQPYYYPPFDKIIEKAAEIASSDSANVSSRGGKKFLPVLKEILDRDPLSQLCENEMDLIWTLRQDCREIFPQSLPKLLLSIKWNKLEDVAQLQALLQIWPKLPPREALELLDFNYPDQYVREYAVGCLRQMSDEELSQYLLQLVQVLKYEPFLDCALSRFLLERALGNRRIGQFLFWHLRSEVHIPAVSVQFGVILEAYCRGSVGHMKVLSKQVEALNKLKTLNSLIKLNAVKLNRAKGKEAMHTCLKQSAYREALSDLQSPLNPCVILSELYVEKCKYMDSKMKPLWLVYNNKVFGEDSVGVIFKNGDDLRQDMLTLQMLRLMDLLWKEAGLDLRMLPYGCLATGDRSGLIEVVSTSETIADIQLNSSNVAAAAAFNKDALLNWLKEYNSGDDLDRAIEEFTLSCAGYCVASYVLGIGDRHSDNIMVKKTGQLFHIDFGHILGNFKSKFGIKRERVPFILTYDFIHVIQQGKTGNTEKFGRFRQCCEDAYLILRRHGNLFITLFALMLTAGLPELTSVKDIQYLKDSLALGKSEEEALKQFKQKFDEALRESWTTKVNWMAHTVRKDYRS
Chain of PI3K-p110β (P27986 whole entry partner): as the sequence (P27986 whole entry partner) above
Chain of PI3K-p110γ (P48736 whole entry): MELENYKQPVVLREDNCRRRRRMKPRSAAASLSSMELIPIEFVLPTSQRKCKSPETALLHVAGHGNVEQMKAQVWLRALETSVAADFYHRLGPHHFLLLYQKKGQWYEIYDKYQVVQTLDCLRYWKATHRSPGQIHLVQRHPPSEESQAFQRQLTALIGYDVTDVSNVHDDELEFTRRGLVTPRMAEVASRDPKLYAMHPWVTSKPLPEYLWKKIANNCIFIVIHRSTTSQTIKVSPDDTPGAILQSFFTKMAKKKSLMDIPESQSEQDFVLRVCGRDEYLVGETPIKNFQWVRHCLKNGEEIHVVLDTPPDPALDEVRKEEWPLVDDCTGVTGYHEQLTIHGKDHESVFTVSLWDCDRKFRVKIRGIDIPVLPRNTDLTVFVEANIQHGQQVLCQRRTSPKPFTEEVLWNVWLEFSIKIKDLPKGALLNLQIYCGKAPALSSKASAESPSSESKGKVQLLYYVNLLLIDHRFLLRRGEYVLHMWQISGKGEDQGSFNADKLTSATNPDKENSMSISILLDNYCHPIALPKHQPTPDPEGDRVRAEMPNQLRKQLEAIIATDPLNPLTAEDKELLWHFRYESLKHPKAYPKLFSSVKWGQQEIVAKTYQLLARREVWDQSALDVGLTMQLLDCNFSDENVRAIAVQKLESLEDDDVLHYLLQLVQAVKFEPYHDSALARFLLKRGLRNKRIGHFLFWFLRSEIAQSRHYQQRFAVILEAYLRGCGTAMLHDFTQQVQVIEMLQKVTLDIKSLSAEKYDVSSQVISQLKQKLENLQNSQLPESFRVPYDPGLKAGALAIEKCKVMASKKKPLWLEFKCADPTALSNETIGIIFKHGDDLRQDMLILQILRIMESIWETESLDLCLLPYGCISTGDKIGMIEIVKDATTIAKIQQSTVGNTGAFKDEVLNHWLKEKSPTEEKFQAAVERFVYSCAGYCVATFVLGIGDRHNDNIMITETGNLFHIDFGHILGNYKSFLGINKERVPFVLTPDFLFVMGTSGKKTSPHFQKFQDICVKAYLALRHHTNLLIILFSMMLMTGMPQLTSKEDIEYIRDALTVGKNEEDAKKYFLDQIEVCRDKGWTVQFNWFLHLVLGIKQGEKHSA
Chain of PI3K-p110 α (P42336 whole entry): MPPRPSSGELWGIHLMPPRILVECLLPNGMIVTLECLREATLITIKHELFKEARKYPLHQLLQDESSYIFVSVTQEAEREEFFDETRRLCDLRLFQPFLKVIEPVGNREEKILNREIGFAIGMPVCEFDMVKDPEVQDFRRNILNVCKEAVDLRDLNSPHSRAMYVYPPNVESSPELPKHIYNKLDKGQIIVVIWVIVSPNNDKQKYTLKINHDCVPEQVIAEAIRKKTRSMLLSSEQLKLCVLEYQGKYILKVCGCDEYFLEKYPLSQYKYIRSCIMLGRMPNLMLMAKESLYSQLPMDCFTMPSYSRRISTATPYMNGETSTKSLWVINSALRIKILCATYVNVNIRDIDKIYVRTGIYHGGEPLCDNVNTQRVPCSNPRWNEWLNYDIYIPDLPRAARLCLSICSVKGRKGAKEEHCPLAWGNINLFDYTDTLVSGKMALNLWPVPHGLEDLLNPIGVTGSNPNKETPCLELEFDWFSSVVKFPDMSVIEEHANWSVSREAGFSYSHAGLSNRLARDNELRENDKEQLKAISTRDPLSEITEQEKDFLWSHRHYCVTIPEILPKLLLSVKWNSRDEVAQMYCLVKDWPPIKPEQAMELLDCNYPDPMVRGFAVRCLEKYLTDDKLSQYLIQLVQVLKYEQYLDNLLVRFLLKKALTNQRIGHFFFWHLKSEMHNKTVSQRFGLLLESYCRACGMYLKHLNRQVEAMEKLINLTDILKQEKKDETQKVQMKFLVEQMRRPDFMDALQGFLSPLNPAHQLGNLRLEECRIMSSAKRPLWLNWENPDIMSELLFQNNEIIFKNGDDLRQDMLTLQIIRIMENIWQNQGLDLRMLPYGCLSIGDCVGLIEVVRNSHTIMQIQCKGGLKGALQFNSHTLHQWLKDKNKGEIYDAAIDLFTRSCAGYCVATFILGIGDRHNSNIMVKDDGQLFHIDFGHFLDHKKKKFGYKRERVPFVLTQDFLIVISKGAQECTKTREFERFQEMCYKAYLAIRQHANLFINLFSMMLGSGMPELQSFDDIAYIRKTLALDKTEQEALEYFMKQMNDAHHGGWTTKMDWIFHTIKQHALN
Chain of PI3K-p110 α (P27986 whole entry partner): as the sequence (P27986 whole entry partner) above

| IC50 (PI3K-p110β; Class IA enzyme, read-out: IC50 PI3K-p110β (uM) (Class IA Enzyme)) | IC50 (PI3K-p110γ; Class IB enzyme, read-out: IC50 PI3K-p110γ (uM) (Class IB Enzyme)) | SMILES | class IA/IB PI3K selectivity (PI3K-p110β; compared with industry-standard inhibitor LY294002, p110β vs p110γ) | IC50 (PI3K-p110β; read-out: IC50 PI3K-p110β) | selectivity for PI3K-p110β (PI3K-p110β; versus p110α, p110δ, p110γ) | IC50 (PI3K-p110γ; read-out: IC50 PI3K-p110γ) | IC50 (PI3K-p110 α) | IC50 (PI3K-p110δ) |
| --- | --- | --- | --- | --- | --- | --- | --- | --- |
| 2.34 µM | 20.5 µM | Nc1ccc(-c2cccc3c(=O)nc(N4CCOCC4)oc23)cc1 [Compound A, 8-(4-aminophenyl)-2-morpholino-4H-benzo[e][1,3]oxazin-4-one] | greater class IA/IB PI3K selectivity compared with industry-standard inhibitor, LY294002 |  |  |  |  |  |
|  |  | Nc1ccc(-c2cccc3c(=O)nc(N4CCOCC4)oc23)c(F)c1 [Compound B, 8-(4-Amino-2-fluoro-phenyl)-2-morpholin-4-yl-benzo[e][1,3]oxazin-4-one] |  | 0.538 µM | displays selectivity for PI3K-p110β | 17.8 µM | 3.41 µM | 1.69 µM |
